This passage reports IC50 results from patent US11396502B2, “Substituted heterocyclic derivatives as PI3K inhibitors” (Incyte Corporation, priority 2018, dated 2022).

One may read the IC50 as the midpoint of a concentration-inhibition curve.

One assay deals with PI3Kδ (p110δ/p85α) (Homo sapiens (Human), UniProt O00329). Description: PI3Kδ scintillation proximity assay. The assay is classed as biochemical. Particulars: recombinant human PI3Kδ 3.4 nM, 20 μM PIP2, 2 μM ATP, 120 min, room temperature. An excerpt:
Example C. PI3Kδ Scintillation Proximity Assay Materials: [γ-^33P]ATP (10 mCi/mL) and Wheat Germ Agglutinin (WGA) YSi SPA Scintillation Beads was purchased from Perkin Elmer (Waltham, Mass.). Lipid kinase substrate, D-myo-Phosphatidylinositol 4,5-bisphosphate (PtdIns(4,5)P2)D (+)-sn-1,2-di-O-octanoylglyceryl, 3-O-phospho linked (PIP2), CAS 204858-53-7, was purchased from Echelon Biosciences (Salt Lake City, Utah). PI3Kδ (p110δ/p85α) Recombinant Human Protein was purchased from Eurofins (St Charles, Mo.). ATP, MgCl2, DTT, EDTA, MOPS and CHAPS were purchased from Sigma Aldrich (St. Louis, Mo.). The kinase reaction was conducted in polystyrene 384-well Greiner Bio-one white plate from Thermo Fisher Scientific in a final volume of 25 μL. Inhibitors were first diluted serially in DMSO and added to the plate wells before the addition of other reaction components. The final concentration of DMSO in the assay was 2%. The PI3Kδ assay was carried out at room temperature in 20 mM MOPS, pH 6.7, 10 mM MgCl2, 5 mM DTT and CHAPS 0.03%. Reactions were initiated by the addition of ATP, the final reaction mixture consisted of 20 μM PIP2, 2 μM ATP, 0.5 μCi [γ-^33P] ATP, 3.4 nM PI3Kδ. Reactions were incubated for 120 min and terminated by the addition of 40 μL SPA beads suspended in quench buffer: 163 mM potassium phosphate pH 7.8, 20% glycerol, 25 mM EDTA. The final concentration of SPA beads is 1.0 mg/mL. After the plate sealing, plates were shaken overnight at room temperature and centrifuged at 1500 rpm for 10 min, the radioactivity of the product was determined by scintillation counting on Topcount (PerkinElmer). IC50 determination was performed by fitting the curve of percent of the solvent control activity versus the log of the inhibitor concentration using the GraphPad Prism 6.0 software.
(In general: Scintillation proximity formats need no separation of bound from free tracer.)

In the next assay the target is PI3Kγ (p110γ) (Homo sapiens (Human), UniProt P48736). Description: PI3K-γ scintillation proximity assay. In kind it is biochemical. Particulars: recombinant human PI3Kγ 13 nM, 20 μM PIP2, 2 μM ATP, 120 min, room temperature. An excerpt: Example B. PI3K-γ Scintillation Proximity Assay Materials: [γ-^33P]ATP (10 mCi/mL) and Wheat Germ Agglutinin (WGA) YSi SPA Scintillation Beads was purchased from Perkin Elmer (Waltham, Mass.). Lipid kinase substrate, D-myo-Phosphatidylinositol 4,5-bisphosphate (PtdIns(4,5)P2)D (+)-sn-1,2-di-O-octanoylglyceryl, 3-O-phospho linked (PIP2), CAS 204858-53-7, was purchased from Echelon Biosciences (Salt Lake City, Utah). PI3Kγ (p110γ) Recombinant Human Protein was purchased from Life technology (Grand Island, N.Y.). ATP, MgCl2, DTT, EDTA, MOPS and CHAPS were purchased from Sigma Aldrich (St. Louis, Mo.). The kinase reaction was conducted in polystyrene 384-well Greiner Bio-one white plate from Thermo Fisher Scientific in a final volume of 25 μL. Inhibitors were first diluted serially in DMSO and added to the plate wells before the addition of other reaction components. The final concentration of DMSO in the assay was 2%. The PI3Kγ assay was carried out at room temperature in 20 mM MOPS, pH 6.7, 10 mM MgCl2, 5 mM DTT and CHAPS 0.03%. Reactions were initiated by the addition of ATP, the final reaction mixture consisted of 20 μM PIP2, 2 μM ATP, 0.5 μCi [γ-^33P] ATP, 13 nM PI3Kγ. Reactions were incubated for 120 min and terminated by the addition of 40 μL SPA beads suspended in quench buffer: 163 mM potassium phosphate pH 7.8, 20% glycerol, 25 mM EDTA. The final concentration of SPA beads is 1.0 mg/mL. After the plate sealing, plates were shaken overnight at room temperature and centrifuged at 1500 rpm for 10 min, the radioactivity of the product was determined by scintillation counting on Topcount (Perkin-Elmer). IC50 determination was performed by fitting the curve of percent of the solvent control activity versus the log of the inhibitor concentration using the GraphPad Prism 6.0 software.
Chain of PI3Kγ (p110γ) (P48736 whole entry): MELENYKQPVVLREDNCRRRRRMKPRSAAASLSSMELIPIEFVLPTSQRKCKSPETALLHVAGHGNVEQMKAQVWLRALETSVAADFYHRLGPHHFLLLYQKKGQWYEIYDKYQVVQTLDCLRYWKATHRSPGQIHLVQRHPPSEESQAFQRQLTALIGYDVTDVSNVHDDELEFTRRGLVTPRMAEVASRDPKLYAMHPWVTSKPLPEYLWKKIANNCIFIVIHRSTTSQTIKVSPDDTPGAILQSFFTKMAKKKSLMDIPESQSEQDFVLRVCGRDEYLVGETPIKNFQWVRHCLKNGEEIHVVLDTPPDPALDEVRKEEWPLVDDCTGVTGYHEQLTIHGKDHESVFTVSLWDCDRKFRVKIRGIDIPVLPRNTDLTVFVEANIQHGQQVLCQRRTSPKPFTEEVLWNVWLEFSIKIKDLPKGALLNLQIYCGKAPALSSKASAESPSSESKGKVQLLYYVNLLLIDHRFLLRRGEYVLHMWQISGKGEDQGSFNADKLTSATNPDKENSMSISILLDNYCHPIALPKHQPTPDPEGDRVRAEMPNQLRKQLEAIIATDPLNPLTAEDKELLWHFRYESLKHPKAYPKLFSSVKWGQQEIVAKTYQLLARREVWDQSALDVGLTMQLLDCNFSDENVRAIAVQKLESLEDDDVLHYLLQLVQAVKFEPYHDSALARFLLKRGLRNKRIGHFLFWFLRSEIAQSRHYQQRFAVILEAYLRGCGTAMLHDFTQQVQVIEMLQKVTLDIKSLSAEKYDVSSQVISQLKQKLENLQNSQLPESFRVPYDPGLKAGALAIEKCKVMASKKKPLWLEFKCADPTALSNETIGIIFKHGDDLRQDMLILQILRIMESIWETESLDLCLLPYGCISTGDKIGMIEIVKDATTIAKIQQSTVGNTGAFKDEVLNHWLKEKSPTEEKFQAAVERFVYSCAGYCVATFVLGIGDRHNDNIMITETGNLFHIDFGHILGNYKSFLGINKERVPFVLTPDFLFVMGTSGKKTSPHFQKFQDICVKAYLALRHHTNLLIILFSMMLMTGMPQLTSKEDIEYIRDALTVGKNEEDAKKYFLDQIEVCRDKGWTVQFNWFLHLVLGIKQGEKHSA

Assay [1] has as its system Phosphorylated Ribosomal Protein S6 (RPS6) in THP-1 cells. Description: THP-1 RPS6 ELISA assay. In kind it is cell-based, Human. Particulars: 2 hours compound, 10 nM MCP-1 for 15 minutes, Phospho-RPS6 ELISA, read-out: PI3Kγ_THP1_RPS6_ELISA IC50. The procedure:
Example A. THP-1 RPS6 ELISA Assay
To measure the Phosphorylated Ribosomal Protein S6 (RPS6) in cell lysates, THP-1 cells (Human Acute Monocytic Leukemia) are purchased from ATCC (Manassas, Va.) and maintained in RPMI with 10% FBS (Gibco/Life Technologies, Carlsbad, Calif.). For the assay, THP-1 cells are serum starved overnight in RPMI, then plated in RPMI (2×10^5 cells/well in 90 μL) into 96-well flat-bottom tissue culture treated plates (Corning, Corning, N.Y.), in the presence or absence of a concentration range of test compounds. Covered plates are incubated for 2 hours at 37° C., 5% CO2 then treated with or without 10 nM MCP-1 (MYBioSource, San Diego, Calif.) for 15 minutes at 37° C., 5% CO2. Plates are centrifuged at 1600 RPM and supernatants are removed. Cells are lysed in Lysis Buffer (Cell Signaling, Danvers, Mass.) with Protease Inhibitor (Calbiochem/EMD, Germany), PMSF (Sigma, St Louis Mo.), HALTS (Thermo Fisher, Rockford, Ill.) for 30 min on wet ice. Cell lysates are frozen at −80° C. before testing. The lysates are tested in the Human/Mouse/Rat Phospho-RPS6 ELISA (R&D Systems, Inc. Minn, Minn.). The plate is measured using a microplate reader (SpectraMax M5—Molecular Devices, LLC Sunnyvale, Calif.) set to 450 nm with a wavelength correction of 540. IC50 determination is performed by fitting the curve of inhibitor percent inhibition versus the log of the inhibitor concentration using the GraphPad Prism 5.0 software.
On the technique in general: In an ELISA, binding on a coated surface is turned into a signal by an enzyme label.

Setting [2] is: Homo sapiens, THP-1, serum starved THP-1 cells.

Structures can show the parent of a compound that is named as a salt. Where two headings read alike, the source gives them in different places.

Chain of PI3Kδ (p110δ/p85α) (O00329 whole entry): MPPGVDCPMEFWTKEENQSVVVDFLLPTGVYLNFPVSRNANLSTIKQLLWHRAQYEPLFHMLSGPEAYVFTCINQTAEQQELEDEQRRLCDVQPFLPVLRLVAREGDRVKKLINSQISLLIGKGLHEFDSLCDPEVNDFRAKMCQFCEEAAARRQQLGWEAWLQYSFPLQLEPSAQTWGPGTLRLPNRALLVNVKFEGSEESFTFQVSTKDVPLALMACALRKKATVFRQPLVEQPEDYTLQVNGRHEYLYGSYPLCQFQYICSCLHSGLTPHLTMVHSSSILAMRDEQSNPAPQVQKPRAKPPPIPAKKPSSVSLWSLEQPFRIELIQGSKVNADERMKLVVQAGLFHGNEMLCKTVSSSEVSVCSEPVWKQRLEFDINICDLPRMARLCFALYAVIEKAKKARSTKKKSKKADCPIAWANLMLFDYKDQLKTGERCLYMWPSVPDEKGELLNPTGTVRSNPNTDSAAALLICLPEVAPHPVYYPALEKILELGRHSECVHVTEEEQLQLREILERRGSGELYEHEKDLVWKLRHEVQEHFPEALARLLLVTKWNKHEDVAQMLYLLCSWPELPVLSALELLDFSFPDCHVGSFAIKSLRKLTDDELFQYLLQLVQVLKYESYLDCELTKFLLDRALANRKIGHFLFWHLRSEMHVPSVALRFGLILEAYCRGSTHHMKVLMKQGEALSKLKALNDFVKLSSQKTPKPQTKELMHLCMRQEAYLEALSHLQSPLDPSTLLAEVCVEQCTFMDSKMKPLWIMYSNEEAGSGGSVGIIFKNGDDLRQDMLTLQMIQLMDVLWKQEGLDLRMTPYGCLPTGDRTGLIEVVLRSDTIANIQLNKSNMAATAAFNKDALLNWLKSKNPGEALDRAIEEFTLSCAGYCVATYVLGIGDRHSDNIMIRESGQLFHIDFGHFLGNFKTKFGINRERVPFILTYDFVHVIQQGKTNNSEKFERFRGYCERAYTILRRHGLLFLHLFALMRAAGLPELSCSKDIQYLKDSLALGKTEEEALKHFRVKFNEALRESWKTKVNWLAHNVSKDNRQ
Chain of PI3Kδ (p110δ/p85α) (P27986 whole entry partner): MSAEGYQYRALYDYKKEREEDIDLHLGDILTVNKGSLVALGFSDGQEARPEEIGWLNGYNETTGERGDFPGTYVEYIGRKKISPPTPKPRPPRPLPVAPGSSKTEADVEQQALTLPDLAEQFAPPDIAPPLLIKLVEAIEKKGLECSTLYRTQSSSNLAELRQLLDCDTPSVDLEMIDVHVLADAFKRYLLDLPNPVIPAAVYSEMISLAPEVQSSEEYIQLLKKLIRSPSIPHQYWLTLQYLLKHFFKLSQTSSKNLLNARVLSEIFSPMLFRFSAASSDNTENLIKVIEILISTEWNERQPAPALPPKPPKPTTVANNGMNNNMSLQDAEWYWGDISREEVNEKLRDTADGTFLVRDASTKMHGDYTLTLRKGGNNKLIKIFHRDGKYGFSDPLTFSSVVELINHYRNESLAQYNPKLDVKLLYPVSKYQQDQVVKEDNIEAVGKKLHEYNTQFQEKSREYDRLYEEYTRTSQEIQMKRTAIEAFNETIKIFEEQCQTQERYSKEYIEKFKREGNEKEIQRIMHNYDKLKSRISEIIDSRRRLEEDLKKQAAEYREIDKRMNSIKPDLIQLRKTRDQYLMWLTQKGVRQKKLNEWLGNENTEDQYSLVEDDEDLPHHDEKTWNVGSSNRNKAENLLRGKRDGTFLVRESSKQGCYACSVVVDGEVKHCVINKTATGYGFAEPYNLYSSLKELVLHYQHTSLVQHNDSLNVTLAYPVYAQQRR

As to `Cc1[nH]c(-c2cc(-c3ccc4c(c3)CN([C@@H](C)C3CC3)C4=O)ccn2)nc1C(=O)NC1CCOCC1` [Example 4, (S)-2-(4-(2-(1-Cyclopropylethyl)-1-oxoisoindolin-5-yl)pyridin-2-yl)-5-methyl-N-(tetrahydro-2H-pyran-4-yl)-1H-imidazole-4-carboxamide trifluoroacetate salt], the IC50 is 500 to 2000 nM at PI3Kδ (p110δ/p85α), under 100 nM on PI3Kγ (p110γ) and over 1000 nM in assay [1] (setting [2]).

As to `CCN(C)C(=O)c1nc(-c2cc(-c3cc4c(c(S(C)(=O)=O)c3)C(=O)N([C@@H](C)C3CC3)C4)ccn2)[nH]c1C` [Example 7s, (S)-2-(4-(2-(1-Cyclopropylethyl)-7-(methylsulfonyl)-1-oxoisoindolin-5-yl)pyridin-2-yl)-N-ethyl-N,4-dimethyl-1H-imidazole-5-carboxamide, trifluoroacetate salt], the IC50 at PI3Kδ (p110δ/p85α) was 500 to 2000 nM; at PI3Kγ (p110γ) it was under 100 nM; in assay [1] (setting [2]) it was 500 to 1000 nM.

In the case of `Cc1[nH]c(-c2cc(-c3cc4c(c(S(C)(=O)=O)c3)C(=O)N([C@@H](C)C3CC3)C4)ccn2)nc1C(=O)NC12CC(C1)C2` [Example 7c, (S)-N-(Bicyclo[1.1.1]pentan-1-yl)-2-(4-(2-(1-cyclopropylethyl)-7-(methylsulfonyl)-1-oxoisoindolin-5-yl)pyridin-2-yl)-4-methyl-1H-imidazole-5-carboxamide, trifluoroacetate salt], the IC50 is 100 to 500 nM on PI3Kδ (p110δ/p85α), under 100 nM on PI3Kγ (p110γ) and over 1000 nM in assay [1] (setting [2]).

`Cc1[nH]c(-c2cc(-c3ccc4c(c3)CN([C@@H](C)C3CC3)C4=O)ccn2)nc1C(=O)N(C)C` [Example 5, (S)-2-(4-(2-(1-Cyclopropylethyl)-1-oxoisoindolin-5-yl)pyridin-2-yl)-N,N,5-trimethyl-1H-imidazole-4-carboxamide trifluoroacetate salt]: the IC50 is over 2000 nM on PI3Kδ (p110δ/p85α), under 100 nM at PI3Kγ (p110γ) and over 1000 nM in assay [1] (setting [2]).

As for `Cc1cnc(-c2cc(-c3cc4c(c(S(C)(=O)=O)c3)C(=O)N([C@@H](C)C3CC3)C4)ccn2)[nH]1` [Example 16, (S)-2-(1-Cyclopropylethyl)-5-(2-(5-methyl-1H-imidazol-2-yl)pyridin-4-yl)-7-(methylsulfonyl)isoindolin-1-one, Trifluoroacetate Salt], the IC50 at PI3Kδ (p110δ/p85α) was 500 to 2000 nM; on PI3Kγ (p110γ), under 100 nM; in assay [1] (setting [2]), under 100 nM.

Turning to `Cc1nc(-c2cc(-c3cc4c(c(S(C)(=O)=O)c3)C(=O)N([C@@H](C)C3CC3)C4)ccn2)[nH]c1C` [Example 2, (S)-2-(1-Cyclopropylethyl)-5-(2-(4,5-dimethyl-1H-imidazol-2-yl)pyridin-4-yl)-7-(methylsulfonyl)isoindolin-1-one Trifluoroacetate Salt], the IC50 is 100 to 500 nM on PI3Kδ (p110δ/p85α), under 100 nM on PI3Kγ (p110γ) and 500 to 1000 nM in assay [1] (setting [2]).

With `C[C@@H](C1CC1)N1Cc2cc(-c3ccnc(-c4ccn[nH]4)c3)cc(S(C)(=O)=O)c2C1=O` [Example 15, (S)-5-(2-(1H-Pyrazol-5-yl)pyridin-4-yl)-2-(1-cyclopropylethyl)-7-(methylsulfonyl)isoindolin-1-one, trifluoroacetate salt], the IC50 at PI3Kδ (p110δ/p85α) was over 2000 nM; at PI3Kγ (p110γ), under 100 nM; in assay [1] (setting [2]), over 1000 nM.

Turning to `Cc1nnc(-c2cc(-c3ccc4c(c3)CN([C@@H](C)C3CC3)C4=O)ccn2)[nH]1` [Example 13, (S)-2-(1-Cyclopropylethyl)-5-(2-(5-methyl-4H-1,2,4-triazol-3-yl)pyridin-4-yl)isoindolin-1-one], the half-maximal inhibitory concentration (IC50) on PI3Kδ (p110δ/p85α) was over 2000 nM; at PI3Kγ (p110γ) it was under 100 nM.

With `Cc1nnc(-c2cc(-c3cc4c(c(S(C)(=O)=O)c3)C(=O)N([C@@H](C)C3CC3)C4)ccn2)[nH]1` [Example 12, (S)-2-(1-Cyclopropylethyl)-5-(2-(5-methyl-4H-1,2,4-triazol-3-yl)pyridin-4-yl)-7-(methylsulfonyl)isoindolin-1-one], the IC50 on PI3Kδ (p110δ/p85α) is over 2000 nM; on PI3Kγ (p110γ), under 100 nM; in assay [1] (setting [2]), over 1000 nM.

Turning to `Cc1cc(-c2cc(-c3ccc4c(c3)CN([C@@H](C)C3CC3)C4=O)cnn2)[nH]n1` [Example 11, (S)-2-(1-Cyclopropylethyl)-5-(6-(3-methyl-1H-pyrazol-5-yl)pyridazin-4-yl)isoindolin-1-one Trifluoroacetate Salt], the IC50 is over 2000 nM at PI3Kδ (p110δ/p85α) and 500 to 2000 nM on PI3Kγ (p110γ).

For `CN=S(C)(=O)c1cc(-c2ccnc(-c3nc(C)c(C)[nH]3)c2)cc2c1C(=O)N([C@@H](C)C1CC1)C2` (stereo partly drawn) [Example 24, 2-((S)-1-Cyclopropylethyl)-5-(2-(4,5-dimethyl-1H-imidazol-2-yl)pyridin-4-yl)-7-(N,S-dimethylsulfonimidoyl)isoindolin-1-one], in assay [1] (serum starved THP-1 cells), the IC50 fell in the range of 100 to 500 nM.

For `Cc1nc(-c2cc(-c3cc4c(c(S(C)(=O)=O)c3)C(=O)N([C@@H](C)C3CC3)C4)cnn2)[nH]c1C` [Example 8, (S)-2-(1-Cyclopropylethyl)-5-(6-(4,5-dimethyl-1H-imidazol-2-yl)pyridazin-4-yl)-7-(methylsulfonyl)isoindolin-1-one Trifluoroacetate Salt], the IC50 at PI3Kδ (p110δ/p85α) was over 2000 nM; on PI3Kγ (p110γ), under 100 nM.

Regarding `Cc1nc(-c2cc(-c3cc4c(c(S(C)(=N)=O)c3)C(=O)N([C@@H](C)C3CC3)C4)ccn2)[nH]c1C` (stereo partly drawn) [Example 21, 2-((S)-1-Cyclopropylethyl)-5-(2-(4,5-dimethyl-1H-imidazol-2-yl)pyridin-4-yl)-7-(S-methylsulfonimidoyl)isoindolin-1-one], the IC50 in assay [1] (serum starved THP-1 cells) lay in the range of 500 to 1000 nM.

`Cc1nc(-c2cc(-c3cc4c(c(C(O)CO)c3)C(=O)N([C@@H](C)C3CC3)C4)cnn2)[nH]c1C` (stereo partly drawn) [Example 19, 2-((S)-1-Cyclopropylethyl)-7-(1,2-dihydroxyethyl)-5-(6-(4,5-dimethyl-1H-imidazol-2-yl)pyridazin-4-yl)isoindolin-1-one, Trifluoroacetate Salt]: the IC50 is over 2000 nM on PI3Kδ (p110δ/p85α) and under 100 nM at PI3Kγ (p110γ).
